Values joined by “and” are separate entries in the source; they are usually repeats but may differ in a detail not shown here. Equal entries are not always repeated.
O=C(C(F)(F)C(F)(F)F)C(F)(C(F)(F)F)C(F)(F)F [dodecafluoro-2-methylpentan-3-one]
Details	thermal conductivity
333.01 K, 108 kPa, Liquid, transient hot wire	0.05128 W/m/K and 0.05126 W/m/K
333.21 K, 69192 kPa, Liquid, transient hot wire	0.07561 W/m/K
333.22 K, 69183 kPa, Liquid, transient hot wire	0.07544 W/m/K
333.25 K, 28069 kPa, Liquid, transient hot wire	0.06356 W/m/K
333.26 K, 28068 kPa, Liquid, transient hot wire	0.06353 W/m/K
333.28 K, 57706 kPa, Liquid, transient hot wire	0.07259 W/m/K
333.29 K, 57707 kPa, Liquid, transient hot wire	0.07259 W/m/K
333.34 K, 3947 kPa, Liquid, transient hot wire	0.05333 W/m/K
333.35 K, 3945 kPa, Liquid, transient hot wire	0.0533 W/m/K
333.35 K, 20435 kPa, Liquid, transient hot wire	0.06088 W/m/K
333.36 K, 20438 kPa, Liquid, transient hot wire	0.06085 W/m/K
333.37 K, 45549 kPa, Liquid, transient hot wire	0.06924 W/m/K
333.39 K, 45558 kPa, Liquid, transient hot wire	0.06943 W/m/K
333.46 K, 14103 kPa, Liquid, transient hot wire	0.05826 W/m/K
333.47 K, 14107 kPa, Liquid, transient hot wire	0.05827 W/m/K
333.47 K, 36549 kPa, Liquid, transient hot wire	0.06656 W/m/K
333.48 K, 36550 kPa, Liquid, transient hot wire	0.0665 W/m/K
333.58 K, 8568 kPa, Liquid, transient hot wire	0.0556 W/m/K
333.58 K, 8574 kPa, Liquid, transient hot wire	0.05562 W/m/K
333.67 K, 231 kPa, Liquid, transient hot wire	0.05113 W/m/K
333.67 K, 232 kPa, Liquid, transient hot wire	0.05114 W/m/K
333.7 K, 108 kPa, Liquid, transient hot wire	0.05109 W/m/K
333.71 K, 108 kPa, Liquid, transient hot wire	0.051 W/m/K
341.75 K, 117 kPa, Gas, transient hot wire	0.01428 W/m/K
341.75 K, 153 kPa, Gas, transient hot wire	0.01409 W/m/K
341.8 K, 117 kPa, Gas, transient hot wire	0.01432 W/m/K
341.81 K, 154 kPa, Gas, transient hot wire	0.01416 W/m/K
341.86 K, 61 kPa, Gas, transient hot wire	0.01468 W/m/K
341.91 K, 62 kPa, Gas, transient hot wire	0.01468 W/m/K
342.04 K, 153 kPa, Gas, transient hot wire	0.01411 W/m/K
342.05 K, 117 kPa, Gas, transient hot wire	0.01436 W/m/K
342.11 K, 116 kPa, Gas, transient hot wire	0.01434 W/m/K
342.11 K, 153 kPa, Gas, transient hot wire	0.0142 W/m/K
342.19 K, 61 kPa, Gas, transient hot wire	0.01474 W/m/K
342.23 K, 61 kPa, Gas, transient hot wire	0.01466 W/m/K
342.38 K, 153 kPa, Gas, transient hot wire	0.0142 W/m/K
342.39 K, 115 kPa, Gas, transient hot wire	0.01437 W/m/K
342.44 K, 116 kPa, Gas, transient hot wire	0.01444 W/m/K
342.44 K, 153 kPa, Gas, transient hot wire	0.01429 W/m/K
342.56 K, 60 kPa, Gas, transient hot wire	0.01477 W/m/K
342.59 K, 61 kPa, Gas, transient hot wire	0.01463 W/m/K
342.74 K, 153 kPa, Gas, transient hot wire	0.01422 W/m/K
342.76 K, 115 kPa, Gas, transient hot wire	0.0144 W/m/K
342.8 K, 153 kPa, Gas, transient hot wire	0.01428 W/m/K
342.81 K, 116 kPa, Gas, transient hot wire	0.01448 W/m/K
342.95 K, 60 kPa, Gas, transient hot wire	0.01472 W/m/K
342.98 K, 61 kPa, Gas, transient hot wire	0.01475 W/m/K
343.11 K, 153 kPa, Gas, transient hot wire	0.01428 W/m/K
343.15 K, 116 kPa, Gas, transient hot wire	0.01455 W/m/K
343.18 K, 153 kPa, Gas, transient hot wire	0.01436 W/m/K
343.2 K, 116 kPa, Gas, transient hot wire	0.0145 W/m/K
343.36 K, 60 kPa, Gas, transient hot wire	0.0147 W/m/K
343.39 K, 61 kPa, Gas, transient hot wire	0.01474 W/m/K
343.88 K, 192 kPa, Gas, hot wire	0.01563 W/m/K
343.89 K, 192 kPa, Gas, hot wire	0.01557 W/m/K
343.9 K, 170 kPa, Gas, hot wire	0.01524 W/m/K and 0.0152 W/m/K
343.91 K, 134 kPa, Gas, hot wire	0.01511 W/m/K and 0.01509 W/m/K
343.94 K, 82 kPa, Gas, hot wire	0.0148 W/m/K and 0.01481 W/m/K
343.99 K, 26 kPa, Gas, hot wire	0.01441 W/m/K
344 K, 26 kPa, Gas, hot wire	0.01439 W/m/K
344.02 K, 192 kPa, Gas, hot wire	0.01569 W/m/K
344.03 K, 192 kPa, Gas, hot wire	0.01571 W/m/K
344.04 K, 170 kPa, Gas, hot wire	0.01532 W/m/K
344.06 K, 134 kPa, Gas, hot wire	0.01505 W/m/K
344.07 K, 134 kPa, Gas, hot wire	0.01503 W/m/K
344.1 K, 82 kPa, Gas, hot wire	0.01476 W/m/K
344.1 K, 83 kPa, Gas, hot wire	0.01479 W/m/K
344.14 K, 26 kPa, Gas, hot wire	0.01446 W/m/K and 0.01445 W/m/K
344.17 K, 191 kPa, Gas, hot wire	0.01575 W/m/K and 0.01573 W/m/K
344.19 K, 169 kPa, Gas, hot wire	0.01545 W/m/K and 0.01542 W/m/K
344.21 K, 133 kPa, Gas, hot wire	0.01513 W/m/K
344.25 K, 83 kPa, Gas, hot wire	0.0148 W/m/K
344.26 K, 83 kPa, Gas, hot wire	0.01479 W/m/K
344.31 K, 26 kPa, Gas, hot wire	0.01448 W/m/K and 0.01449 W/m/K
344.31 K, 191 kPa, Gas, hot wire	0.01589 W/m/K
344.32 K, 191 kPa, Gas, hot wire	0.01586 W/m/K
344.35 K, 169 kPa, Gas, hot wire	0.01551 W/m/K and 0.01555 W/m/K
344.38 K, 132 kPa, Gas, hot wire	0.01516 W/m/K
344.38 K, 133 kPa, Gas, hot wire	0.01519 W/m/K
344.43 K, 83 kPa, Gas, hot wire	0.0148 W/m/K
344.44 K, 83 kPa, Gas, hot wire	0.01478 W/m/K
344.47 K, 191 kPa, Gas, hot wire	0.01601 W/m/K and 0.01602 W/m/K
344.49 K, 26 kPa, Gas, hot wire	0.01446 W/m/K and 0.01447 W/m/K
344.51 K, 169 kPa, Gas, hot wire	0.01563 W/m/K

— the NIST ThermoML archive (doi:10.1021/acs.jced.8b00132)
